Measurements as given in patent US4120864A, “1,2,4-4H-triazole derivatives” (Rohm and Haas Company, priority 1972, dated 1978).
Like-named read-outs stand apart in the source and are kept apart here.

Legend:
Assay type in all cases: in vivo
[1] = system: wheat leaf rust, Puccinia recondita; assay: whole plant or invertebrate; conditions: foliar; for pest or weed control at 280.212 g/ha: read-out: % Control (with 1" of rain), foliar, 0.25 lb., 1" of rain; for pest or weed control at 1120.85 g/ha: read-out: % Control (with 1" of rain), foliar, 1 lb., 1" of rain
Phytophthora infestans = conditions: foliar application at 1200 ppm or root uptake from treated soil containing 20 ppm
[2] = system: wheat leaf rust, Puccinia recondita; assay: whole plant or invertebrate; conditions: foliar; for pest or weed control at 280.212 g/ha: read-out: % Control (without rain), foliar, 0.25 lb.; for pest or weed control at 1120.85 g/ha: read-out: % Control (without rain), foliar, 1 lb.
[3] = system: wheat leaf rust, Puccinia recondita; assay: Foliar systemic activity on leaf rust
Text: Another type of systemic test was run in which pots of approximately 5 inch high wheat plants were sprayed with varying concentrations of the test compound. Thirty-six hours later they were sprayed six minutes in a rain machine which amounted to about one inch of normal rainfall. The plants were then placed in a greenhouse for 7 days and then inoculated with a spore suspension of wheat leaf rust, Puccinia recondita. About 7 days later lesion counts were made on ten leaves representing the sprayed leaves and new growth from each replicate and compared with similar pots of wheat plants which were untreated with a chemical and the percent disease control determined. Disease control on the new growth is a measure of systemic activity. The commercial product known by the trademarked name Plantvax, which is 2,3-dihydro-5-carboxanilido-6-methyl-1,4-oxathiin-4,4-dioxide, was used as a standard.

[4] = system: wheat leaf rust, Puccinia recondita
[5] = system: leaf rust on spring wheat; assay: Systemic field test, leaf rust on spring wheat; conditions: 36 days after treatment
[6] = system: rice blast, Piricularia oryzae; conditions: foliar application, 1200 ppm
[7] = system: leaf rust on winter wheat; assay: Systemic field test, leaf rust on winter wheat; conditions: 46 days after application, untreated 1109

Compound	pest or weed control at 280.212 g/ha [1]	pest or weed control at 1120.85 g/ha [1]	control of Phytophthora infestans (Phytophthora infestans)	pest or weed control at 280.212 g/ha [2]	pest or weed control at 1120.85 g/ha [2]	% Rust Control, New growth ([3]; 1/2 lb./100 gal.)	% Rust Control, Sprayed Leaf ([3]; 1/2 lb./100 gal.)	% Rust Control, New growth ([3]; 1/6 lb./100 gal.)	% Rust Control, Sprayed Leaf ([3]; 1/6 lb./100 gal.)	% Rust Control, Sprayed Leaf ([3]; 1/12 lb./100 gal.)	% Leaves infected ([5]; 0.5 lbs./acre)	% Leaves infected ([5]; 1 lbs./acre)	% Leaves infected ([5]; 2 lbs./acre)	other results
CCOCCCn1cnnc1 [Example 47]	30%	55%	good control	80%	80%									
CCCCCCCCn1cnnc1 [Example 10, 4-n-octyl-1,2,4-triazole]			good control											
CCCCn1c(S)nnc1C(=O)O [Example 94, 3-mercapto-4-n-butyl-5-carboxy-1,2,4-triazole]	82%	83%		100%	100%	86%	99%	73%	91%	71%	35%	17%	7%	% Rust Control, New growth ([3]; 1/12 lb./100 gal.): 61%; % Systemic Wheat Leaf Rust Control ([4]; 2.5 ppm in soil): 95%; % Systemic Wheat Leaf Rust Control ([4]; 5 ppm in soil): 99%; % Systemic Wheat Leaf Rust Control ([4]; 10 ppm in soil): 100%
OCCCn1cnnc1 [Example 18, 4-(3-hydroxypropyl)-1,2,4-triazole]	0%	0%	good control	0%	0%									
CCCCCCCCCCCCn1cnnc1 [Example 13, 4-n-dodecyl-1,2,4-triazole]	0%	30%		20%	60%									control of rice blast, Piricularia oryzae [6]: 95-100%
CC1=C(C(=O)Nc2ccccc2)S(=O)(=O)CCO1 [Plantvax, 2,3-dihydro-5-carboxanilido-6-methyl-1,4-oxathiin-4,4-dioxide, reference compound]						38%	49%	32%	37%	3%	79%	78%	75%	No. of lesions/800 leaves ([7]; 0.5 lbs./acre): 1113 lesions/800 leaves; No. of lesions/800 leaves ([7]; 1 lbs./acre): 1017 lesions/800 leaves; No. of lesions/800 leaves ([7]; 2 lbs./acre): 690 lesions/800 leaves
CCCCn1cnnc1S [Example 76, 3-mercapto-4-n-butyl-1,2,4-triazole]	100%	100%		100%	100%	90%	97%	77%	88%	80%	23%	10%	4%	No. of lesions/800 leaves ([7]; 0.5 lbs./acre): 453 lesions/800 leaves; No. of lesions/800 leaves ([7]; 1 lbs./acre): 239 lesions/800 leaves; No. of lesions/800 leaves ([7]; 2 lbs./acre): 89 lesions/800 leaves; % Rust Control, New growth ([3]; 1/12 lb./100 gal.): 75%; % Systemic Wheat Leaf Rust Control ([4]; 2.5 ppm in soil): 83%; % Systemic Wheat Leaf Rust Control ([4]; 5 ppm in soil): 97%; % Systemic Wheat Leaf Rust Control ([4]; 10 ppm in soil): 100%
